Key:
[1] = test system: hexokinase; conditions: Johnson et al., Biochemistry 21:2984 (1982); cited from earlier work
[2] = test system: protein kinase; conditions: Johnson et al., Biochemistry 21:2984 (1982); cited from earlier work
[3] = test system: pp60^src; conditions: Richert et al., Cell 18:369 (1979); cited from earlier work
[4] = test system: ASV-transformed cells; conditions: Weber, Cell 5:253 (1975); cited from earlier work
[5] = test system: A-431 plasma membrane extracts (EGF-mediated protein phosphorylation); assay: Protein phosphorylation in solubilized A-431 plasma membrane extracts, with or without EGF; type: biochemical, human; conditions: 477 nmol/mg protein
Experimental: The capacity of certain peptide halomethyl ketones to inhibit protein phosphorylation is illustrated by Examples 1-8, below, in which solubilized plasma membranes prepared from A-431 human epidermoid carcinoma cells were incubated with [γ-^32 P] ATP in the presence of EGF.
A-431 human epidermoid carcinoma cells were grown in Dulbecco's modified Eagle's medium containing 5% fetal calf serum. Plasma membranes were isolated by a method substantially similar to that described by Thom et al., Biochem J. 168:187 (1977), and kept at -70°. Solubilization of plasma membranes was performed substantially as described by Cohen et al., J. Biol. Chem. 255:4834 (1980). In this procedure, 7.5 mg/mL protein was solubilized with 5% Triton X-100 (octylphenol), 10% glycerol, and 20 mM Hepes buffer (N-2-hydroxyethylpiperazine-N^1 -2-ethanesulfonic acid), pH 7.4. This mixture was incubated for 20 minutes at about 23°, followed by centrifugation at 100,000 xg for 60 minutes.
(§1) Protein phosphorylation assays were conducted substantially as described by Carpenter et al., J. Biol. Chem. 254:4884 (1979). Each assay mixture contained, in a final volume of 70 μL: 20 mM Hepes, pH 7.4, 0.01% bovine serum albumin (BSA), 15-150 μg protein in Triton extract, 100 ng EGF, 1 mM MnCl2 and 10-20 μM [γ-^32 P] ATP (2-4 μCi). Peptide halomethyl ketones were added as solutions in ethanol; an equivalent volume of ethanol was added to controls. Assay mixtures were incubated at about 23° for ten minutes, with or without added EGF. Mixtures were then held at 0° for ten minutes before initiation of phosphorylation by addition of 15 μM γ-^32 P) ATP (2 μCi). Reactions were terminated after 3 minutes at 0° by applying an aliquot of the assay mixture to a Whatman 3MM filter paper (2×2 cm), which was then suspended in ice-cold 10% trichloroacetic acid containing 10 mM pyrophosphate. This suspension was gently shaken for a period of 1 hour, during which the trichloroacetic acid/pyrophosphate mixture was changed three times. Finally, the filter papers were dried and radioactivity measured by scintillation counting.

[6] = molecular target: T1, A-431 cell EGF receptor (Homo sapiens, UniProt P00533); assay: Protein phosphorylation of A-431 cell membrane EGF receptors (intact membranes, EGF present); type: biochemical; conditions: 600 nmoles/mg protein, intact A-431 membranes
T1 construct: intact A-431 cell membranes were employed, rather than solubilized extracts; endogenous in cells; host or cells: A-431 human epidermoid carcinoma cells (plasma membranes)
Experimental: as §1
Assays were conducted substantially as described above, except intact A-431 cell membranes were employed, rather than solubilized extracts, and assay mixtures contained 1 mM ouabain. In these Examples, reactions were permitted to proceed for 6 minutes. This technique is substantially similar to that disclosed by Navarro et al., Biochemistry, 21:6138 (1982).

[7] = molecular target: T2, p130^fps (UniProt P00530+P03323); assay: Immune complex phosphorylation by p130fps immunoprecipitates of FSV-transformed cells; type: biochemical, Fujinami sarcoma virus (FSV); conditions: for Activity (cpm), FSV: anti-gag immunoprecipitates, no inhibitor 27036; for Activity (cpm), Control: extracts immunoprecipitated with normal serum, no inhibitor 2624
T2 construct: anti-gag serum and Staphylococcus protein A suspension (for FSV-transformed cells); viral gag-derived N-terminal portion (natural gag-fps fusion); expressed in transfected cells; immune complex with anti-gag serum and Staphylococcus protein A
Experimental: In this experiment, Boc-LeuCH2 Br was tested as an inhibitor of pp60^src and p130^fps, the tyrosine-specific protein kinases encoded by the transforming genes of RSV and Fujinami sarcoma virus, respectively.
These viral gene products were partially purified by preparation of immune complexes substantially according to the technique described by Collett et al., Proc. Nat. Acad. Sci. USA 75:2021 (1978). In this procedure, immunoprecipitates are prepared by incubation of extracts of virus-transformed cells with tumor-bearing rabbit serum (TBR) and Staphylococcus protein A suspension (for RSV-transformed cells) or anti-gag serum and Staphylococcus protein A suspension (for FSV-transformed cells).
Assay mixtures contained, in a final volume of 70 μL, 100 μg of immune complex protein, 20 mM Hepes, pH 7.4, and 1 mM MnCl2. Phosphorylation was initiated by addition of 1 μM (4 μCi) [γ-^32 P] ATP. After 10 minutes at about 23°, reactions were terminated by pipetting 20 μL aliquots of assay mixture onto 2×2 cm squares of Whatman 3 MM filter paper, which were immediately suspended in 10% TCA/10 mM sodium pyrophosphate. […] Controls for the immunoprecipitation procedure were prepared by immunoprecipitating transformed cell extracts with normal serum. Values in parentheses represent specific phosphorylation induced by virus-transformed cells.
In a related experiment, the capacity of Boc-LeuCH2 Br to inhibit phosphorylation of casein by p130^fps was determined. These tests were conducted substantially as described above, except 1 mg/mL casein was added to assay mixtures as a substrate, and reactions were terminated by addition of 2.5 mM unlabeled ATP and immediate cooling to 0°. Phosphorylated casein was separated from immunoprecipitate suspensions by centrifugation at 3,000 xg for 3 minutes. The resulting pellets were resuspended in 70 μL of 10 mM Hepes, pH 7.5, and 20 μL aliquots were pipetted onto filter paper squares as previously described.
This experiment was conducted substantially according to the procedures described in Example 17, above. In Table 5, "FSV" refers to immunoprecipitates of FSV-transformed cell extracts prepared by addition of anti-gag serum; controls were extracts immunoprecipitated with normal serum.

T1 sequence (P00533 25-1210): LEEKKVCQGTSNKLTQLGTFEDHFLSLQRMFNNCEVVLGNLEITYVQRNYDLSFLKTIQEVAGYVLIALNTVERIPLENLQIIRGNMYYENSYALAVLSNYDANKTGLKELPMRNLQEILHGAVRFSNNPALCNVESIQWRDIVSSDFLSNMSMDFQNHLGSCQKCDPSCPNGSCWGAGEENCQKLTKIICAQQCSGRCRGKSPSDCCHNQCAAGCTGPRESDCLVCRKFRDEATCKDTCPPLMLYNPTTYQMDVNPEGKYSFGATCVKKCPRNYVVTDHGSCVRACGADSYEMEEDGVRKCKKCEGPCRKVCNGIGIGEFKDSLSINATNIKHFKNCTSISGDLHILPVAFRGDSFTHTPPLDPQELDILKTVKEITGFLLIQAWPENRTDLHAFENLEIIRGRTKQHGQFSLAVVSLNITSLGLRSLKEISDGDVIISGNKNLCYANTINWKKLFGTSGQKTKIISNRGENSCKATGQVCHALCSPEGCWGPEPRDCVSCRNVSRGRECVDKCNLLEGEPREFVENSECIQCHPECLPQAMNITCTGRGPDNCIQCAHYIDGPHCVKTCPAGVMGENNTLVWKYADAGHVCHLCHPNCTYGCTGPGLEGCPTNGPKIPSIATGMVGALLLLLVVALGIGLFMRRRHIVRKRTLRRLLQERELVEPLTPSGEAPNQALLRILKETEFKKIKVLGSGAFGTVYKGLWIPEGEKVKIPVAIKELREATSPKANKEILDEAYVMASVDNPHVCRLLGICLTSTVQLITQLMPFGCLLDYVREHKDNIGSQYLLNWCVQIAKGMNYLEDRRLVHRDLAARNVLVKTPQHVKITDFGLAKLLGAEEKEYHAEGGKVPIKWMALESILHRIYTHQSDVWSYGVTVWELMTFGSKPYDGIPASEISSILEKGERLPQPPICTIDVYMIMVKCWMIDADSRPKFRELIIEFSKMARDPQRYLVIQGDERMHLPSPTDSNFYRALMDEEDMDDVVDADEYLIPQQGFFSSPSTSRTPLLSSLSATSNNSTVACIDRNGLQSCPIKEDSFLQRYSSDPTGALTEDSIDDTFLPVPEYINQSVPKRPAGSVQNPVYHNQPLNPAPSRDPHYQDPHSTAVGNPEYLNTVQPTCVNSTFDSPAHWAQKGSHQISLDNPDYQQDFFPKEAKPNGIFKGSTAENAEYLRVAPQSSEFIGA

In the case of `CC(C)COC(=O)OC(C)C(=O)CCl` (stereo not drawn) [2-isobutyl 3-oxo-4-chloro-2-butyl carbonate], the “hexokinase activity of Ehrlich ascites tumor cells (in words)” value [1] is listed as “inhibition” and the “protein kinase activity of Ehrlich ascites tumor cells (in words)” value [2] is listed as “inhibition”.

In the case of `Cc1ccc(S(=O)(=O)N[C@@H](CCCCN)C(=O)CCl)cc1` [TLCK, N-α-tosyl-L-lysyl chloromethyl ketone], the “in vivo protein phosphorylation activity associated with pp60src (in words)” value [3] is listed as “observed to inhibit” and the “phenotype of ASV-transformed cells upon treatment (in words)” value [4] is listed as “phenotypic reversion of ASV-transformed cells to normal”.

In the case of `CC(C)(C)OC(=O)N[C@@H](Cc1ccc(O)cc1)C(=O)CBr` [Boc-TyrCH2 Br], the “% inhibition, EGF Added” value ([5]; EGF added) is reported as 78%, the “EGF Added (pmol 32P incorporated/min/mg protein)” value ([5]; EGF added, control 96.2) is reported as 20.6 pmol^32 P incorporated/min/mg and the “% inhibition, No EGF Added” value ([5]; no EGF) is reported as 83%. For the same molecule, the “No EGF Added (pmol 32P incorporated/min/mg protein)” value ([5]; no EGF, control 21.6) was 3.6 pmol^32 P incorporated/min/mg, the “% inhibition” value [6] was 49% and the “% inhibition” value ([7]; 250 nmoles/mg protein) was 84%. For the same molecule, the “Activity (cpm), FSV” value ([7]; 250 nmoles/mg protein) was 4204 cpm, the “Activity (cpm), Control” value ([7]; 250 nmoles/mg protein) was 2132 cpm and the “% inhibition” value ([7]; 500 nmoles/mg protein) was 87%. The “Activity (cpm), FSV” value ([7]; 500 nmoles/mg protein) was 3404 cpm and the “Activity (cpm), Control” value ([7]; 500 nmoles/mg protein) was 2140 cpm.

Source: patent US4582821A, “Inhibition of cyclic nucleotide independent protein kinases” (E. I. Du Pont de Nemours and Company, priority 1983, dated 1986)
